Laboratory results reported in patent US8293755B2, “Treatment of statin side effects using uridine derivatives” (Magral Pty Ltd., priority 2001, dated 2012).
Values joined by “and” are separate entries in the source; they are usually repeats but may differ in a detail not shown here. Identical values can stand only once.

Assays:
Format in all cases: in vivo, human
[1] = system: statin induced muscle pain; assay: Pilot clinical study: McGill Pain Questionnaire scores (PRI, PPI) in statin patients given magnesium orotate; set-up: key to PRI—Pain Rating Index: McGill PRI; higher scores = more pain; conditions: for PPI—Present Pain Intensity: score 0 to 5; for PPI—Present Pain Intensity / PRI—Pain Rating Index: 1600 mg/day magnesium orotate
Excerpt: (§1) Table 1 outlines data for seventeen patients (numbered #i-#xvii) undergoing statin therapy for treatment of hypercholesterolemia and who had reported suffering from varying levels of muscular pain and fatigue. This study is ongoing but the results below follow the study in relation to these patients for varying periods, from day 0 (T0d) up to a maximum of 56 days (T56d).
(§2) The design of the clinical trial involves a blood sample being taken from the patients prior to commencing medication administration and then on four further occasions during the 13 week trial, at around days 13-16, days 26-30, days 35-60 and finally at days 80-90. Patients were also required to submit answers to a questionnaire on approximately a weekly basis to enable patients to be scored for pain using the McGill Pain Questionnaire (Melzack, R., 1975 “The McGill Pain Questionnaire: Major Properties and Scoring Methods”. Pain 1:277-299, the disclosure of which is included herein in its entirety by way of reference) scales for Pain Rating Index (PRI) and Present Pain Intensity (PPI). In the PRI index, which comprises two scores, higher scores indicate increasing levels of pain. In the PPI index present pain is given a score of 0 to 5, where 0 represents no pain and 5 represents excruciating pain. Patients were also scored prior to commencement of the trial medication for fatigue using the Fatigue Impact Scale (Fisk, J. D. et al, 1994, “Measuring the functional impact of fatigue: Initial Validation of the Fatigue Impact Scale”, Clinical Infectious Disease, 18 (Suppl 1):S79-83, the disclosure of which is included herein in its entirety by way of reference). On the first week at the clinic, prior to commencement of the trial medication, details of the patients' statin medication were recorded and daily doses noted.
(§3) After the pre-trial medication blood samples and questionnaires were taken (T0d) patients commenced taking daily doses of 1600 mg of magnesium orotate, administered as 2×400 mg tablets, morning and evening.
(§4) A preliminary statistical analysis of the results of the PRI, PPI and FIS tests for the patients on the trial as a group are presented in Table 3, below.

[2] = system: statin induced fatigue; assay: Pilot clinical study: Fatigue Impact Scale (FIS) in statin patients given magnesium orotate; set-up: FIS—Fatigue Impact Scale: scale not given here; conditions: for FIS—Fatigue Impact Scale: 1600 mg/day magnesium orotate
Excerpt: as §1, §2, §3, §4

[3] = Pilot clinical study: monitoring of blood serum components
Excerpt: as §2, §3
Blood samples were taken prior to commencement of trial medication (T0d) and after approximately 14 (T14d), 28 (T28d), 42 (T42d) and 56 (T56d) days to determine individual to baseline levels of uridine (μg/ml) arising from magnesium orotate (MgOr) administration, to thereby monitor patient compliance. Blood samples taken were also used to determine creatine kinase concentration (CK) (units/L), gamma glutaryl transferase (GGT) concentration, aspartate amino transferase (AST) concentration and alanine aminotransferase concentration (ALT) (units/L), as well as serum lipid levels including total cholesterol concentration, high density lipoprotein (HDL-CHOL) concentration, low density lipoprotein (LDL-CHOL) concentration, tryglyceride (TRIG) concentration and levels of other serum components routinely tested for including magnesium ion concentration.

[4] = most patients undergoing the magnesium orotate therapy
[5] = patients within the normal ranges at commencement of the trial

magnesium orotate
PPI—Present Pain Intensity ([1]; T7d, baseline in T0d): 2 (4×) and 1 (9×) and 0 (3×) | PRI—Pain Rating Index ([1]; T14d): 9 (2×) and 8 and 28 and 16 and 23 and 42 and 4 and 7 and 15 and 37 and 2 and 3 and 0 and 6 | PPI—Present Pain Intensity ([1]; T14d): 2 (6×) and 1 (9×) | PRI—Pain Rating Index ([1]; T21d): 9 (2×) and 8 (2×) and 24 and 13 and 15 and 42 and 2 and 35 and 0 and 3 and 12 | PPI—Present Pain Intensity ([1]; T21d): 2 (5×) and 1 (7×) and 0 | PRI—Pain Rating Index ([1]; T28d): 2 (3×) and 3 (2×) and 11 and 4 and 0 | PPI—Present Pain Intensity ([1]; T28d): 1 (4×) and 0 (3×) and 2 | PRI—Pain Rating Index ([1]; T35d): 0 | PPI—Present Pain Intensity ([1]; T35d): 0 | PRI—Pain Rating Index ([1]; T42d): 0 | PPI—Present Pain Intensity ([1]; T42d): 0 | PRI—Pain Rating Index ([1]; T49d): 0 | PPI—Present Pain Intensity ([1]; T49d): 0 | PRI—Pain Rating Index ([1]; T56d): 0 | PPI—Present Pain Intensity ([1]; T56d): 0 | PRI and PPI pain scores [1, 4]: significant improvements | FIS—Fatigue Impact Scale ([2]; T7d, baseline in T0d): 0 and 19 and 9 and 23 and 88 and 7 and 24 and 17 and 101 and 5 and 47 and 77 and 44 and 40 and 6 and 21 | FIS—Fatigue Impact Scale ([2]; T14d): 0 and 38 and 25 and 86 (2×) and 9 (3×) and 32 and 49 and 3 and 48 and 31 and 11 and 21 | FIS—Fatigue Impact Scale ([2]; T21d): 0 and 19 and 18 and 39 and 92 and 4 and 30 and 8 and 91 and 10 and 67 and 21 and 3 | FIS—Fatigue Impact Scale ([2]; T28d): 0 and 22 and 51 and 1 and 7 and 77 and 9 and 50 | FIS—Fatigue Impact Scale ([2]; T35d): 0 and 22 | FIS—Fatigue Impact Scale ([2]; T42d): 0 and 13 | FIS—Fatigue Impact Scale ([2]; T49d): 0 | FIS—Fatigue Impact Scale ([2]; T56d): 0 | FIS fatigue score [2, 4]: significant improvements | serum uridine concentration ([3]; all patients on the trial, data not presented): increase | GGT serum concentration ([3]; day 43, only patient significantly outside normal range at commencement, dropped from 96 U/L at day 0): 83 U/L | AST serum concentration ([3]; day 43, same patient, dropped from 56 U/L at commencement): 42 U/L | ALT serum concentration ([3]; day 43, same patient, dropped from 105 U/L at commencement): 74 U/L | alanine amino transferase (ALT) serum concentration [3, 5]: no significant impact | aspartate amino transferase (AST) serum concentration [3, 5]: no significant impact | gamma glutaryl transferase (GGT) serum concentration [3, 5]: no significant impact | serum creatine kinase concentration (CK) [3, 5]: no significant impact
